We go through one compound from patent publication US20140072629A1, “BIOLOGIC MATRICES COMPRISING ANTI-INFECTIVE, METHODS AND COMPOSITIONS RELATED THERETO” (MUSCULOSKELETAL TRANSPLANT FOUNDATION, priority 2008, published 2014).

Molecules are shown by their SMILES. Read-outs that look alike come from different tables or passages of the source.

Series [1] in a line: Solubility / saturation point of Triclosan in alcohol and water. In kind it is physicochemical. An excerpt: In particular embodiments, an alcohol solution comprising triclosan is delivered to a hydrated acellular biologic matrix, e.g., a biologic matrix treated with a 40% SDA solution. In other embodiments, the matrix is hydrated with e.g., water, saline solution, and the like. Without being bound to theory, it is thought that the triclosan will partially separate from the alcohol phase due to the triclosan's great differential solubility (alcohol soluble and water insoluble) and deposit as an undissolved agent on the surface of and within the biologic tissue. Therefore, after implantation of the triclosan-treated biologic tissue into a subject, the triclosan will slowly exude or leach off the biologic tissue and out of the alcohol layer directly into the wound zone where bacteria may be collecting. Moreover, some of the triclosan may be held by the insoluble water phase and assist in this slow release. In this regard, where the soluble form of triclosan in alcohol would typically be active right away and dissipate within 8-12 hours in a transplant subject, such as a human abdominal hernia patient, it is thought that the precipitated triclosan in a transplanted treated acellular matrix of the subject invention will reside longer at the wound site, e.g., up to about 24-48 hours after transplantation, thereby increasing the effective amount of anti-infective available at the wound site. […]

For series [2] the following is noted: cited from earlier work.

For `Oc1cc(Cl)ccc1Oc1ccc(Cl)cc1Cl` [Triclosan, 2,4,4′-trichloro-2′-hydroxy-diphenyl-ether], the figures for the saturation point in series [1] (25% alcohol) and in series [1] (30% alcohol) were 600 ppm and 1700 ppm, respectively. Also, the figures for the “solubility, in words” value in series [2] (in alcohol) and in series [2] (in water) were “very soluble” and “very insoluble”, respectively.
